{
  "source": "patent US7582645B2",
  "about": "“Pyrimidine derivatives for treatment of hyperproliferative disorders” (Bayer Pharmaceuticals Corporation, priority 2003, dated 2009)",
  "note": "Structures can show the parent of a compound that is named as a salt.",
  "data": [
    {"system": "HCT116 cells", "assay": "HCT116 cytotoxic activity assay (Alamar Blue, 72 h)", "type": "cell-based", "conditions": "Homo sapiens, HCT-116, 72 h compound exposure, greater than 500 nM but less than or equal to 2 μM", "experimental": "(§1) Representative compounds of this invention were tested for cytotoxicity using the above-described assay procedure with the following results: […]", "units": {"IC50": "nM"}, "values": [
      {"smiles": "Nc1nc(Nc2ccc(Oc3cncnc3)cc2)cc(-c2ccccc2)n1", "note": "[Example 61, 6-phenyl-N4*-[4-(pyrimidin-5-yloxy)phenyl] pyrimidine-2,4-diamine]", "IC50": "500 to 2000"},
      {"smiles": "Nc1nc(Nc2ccc(Oc3ccnc(O)c3)cc2)cc(-c2ccccc2)n1", "note": "[Example 65, 4-{4-[(2-amino-6-phenylpyrimidin-4-yl)amino]phenoxy}pyridin-2-ol]", "IC50": "500 to 2000"},
      {"smiles": "N#Cc1ccc(Oc2ccc(Nc3cc(-c4ccccc4)nc(N)n3)cc2)cc1", "note": "[Example 68, 4-{4-[(2-amino-6-phenylpyrimidin-4-yl)amino]phenoxy} benzonitrile]", "IC50": "500 to 2000"},
      {"smiles": "CNC(=O)c1cc(Oc2ccc(Nc3cc(-c4ccccc4)nc(N)n3)cc2)ccn1", "note": "[Example 70, 4-{4-[(2-amino-6-phenylpyrimidin-4-yl)amino]phenoxy}-N-methylpyridine-2-carboxamide]", "IC50": "500 to 2000"},
      {"smiles": "NC(=O)c1cc(Oc2ccc(Nc3cc(-c4ccc(F)cc4)nc(N)n3)cc2)ccn1", "note": "[Example 73, 4-(4-{[2-amino-6-(4-fluorophenyl)pyrimidin-4-yl]amino}phenoxy) pyridine-2-carboxamide]", "IC50": "500 to 2000"},
      {"smiles": "N#Cc1cc(Oc2ccc(Nc3cc(-c4ccc(F)cc4)nc(N)n3)cc2)ccn1", "note": "[Example 75, 4-(4-{[2-amino-6-(4-fluorophenyl)pyrimidin-4-yl]amino}phenoxy) pyridine-2-carbonitrile]", "IC50": "500 to 2000"},
      {"smiles": "Nc1nc(Nc2ccc(Oc3ccnc(C(=O)NC4CN5CCC4CC5)c3)cc2)cc(-c2ccccc2)n1", "note": "(stereo not shown) [Example 79, 4-{4-[(2-amino-6-phenylpyrimidin-4-yl)amino]phenoxy}-N-1-azabicyclo[2.2.2]oct-3-ylpyridine-2-carboxamide trifluoroacetate]", "IC50": "500 to 2000"},
      {"smiles": "CN(C)CCOc1cc(Oc2ccc(Nc3cc(-c4ccccc4)nc(N)n3)cc2)ccn1", "note": "[Example 85, N^4-[4-({2-[2-(dimethylamino)ethoxy]pyridin-4-yl}oxy)phenyl]-6-phenylpyrimidine-2,4-diamine]", "IC50": "500 to 2000"},
      {"smiles": "Cc1ccc(Cc2ccc(Nc3cc(-c4ccccc4)nc(N)n3)cc2)cc1", "note": "[Example 89, N^4-[4-(4-methylbenzyl)phenyl]-6-phenylpyrimidine-2,4-diamine]", "IC50": "500 to 2000"},
      {"smiles": "COc1ccc(Cc2ccc(Nc3cc(-c4ccccc4)nc(N)n3)cc2)cc1", "note": "[Example 90, N^4-[4-(4-methoxybenzyl)phenyl]-6-phenylpyrimidine-2,4-diamine]", "IC50": "500 to 2000"},
      {"smiles": "Nc1nc(Nc2ccc(Cc3ccc(F)cc3)cc2)cc(-c2ccccc2)n1", "note": "[Example 91, N^4-[4-(4-fluorobenzyl)phenyl]-6-phenylpyrimidine-2,4-diamine]", "IC50": "500 to 2000"},
      {"smiles": "Nc1nc(Nc2ccc(Oc3ccnc(CNC(=O)N4CCOCC4)c3)cc2)cc(-c2ccccc2)n1", "note": "[Example 100, N-[(4-{4-[(2-amino-6-phenylpyrimidin-4-yl)amino]phenoxy}pyridin-2-yl)methyl]morpholine-4-carboxamide]", "IC50": "500 to 2000"},
      {"smiles": "Nc1nc(Nc2ccc(Oc3cc(N4CCOCC4)ccn3)cc2)cc(-c2ccccc2)n1", "note": "[Example 105, N4*-{4-[(4-morpholin-4-ylpyridin-2-yl)oxy]phenyl}-6-phenylpyrimidine-2,4-diamine]", "IC50": "500 to 2000"},
      {"smiles": "CN1CCN(c2ccnc(Oc3ccc(Nc4cc(-c5ccccc5)nc(N)n4)cc3)c2)CC1", "note": "[Example 107, N4*-(4-{[4-(4-methylpiperazin-1-yl)pyridin-2-yl]oxy}phenyl)-6-phenylpyrimidine-2,4-diamine]", "IC50": "500 to 2000"},
      {"smiles": "COCCN(CCOC)c1ccnc(Oc2ccc(Nc3cc(-c4ccccc4)nc(N)n3)cc2)c1", "note": "[Example 109, N4*-[4-({4-[bis(2-methoxyethyl)amino]pyridin-2-yl}oxy)phenyl]-6-phenylpyrimidine-2,4-diamine]", "IC50": "500 to 2000"},
      {"smiles": "Nc1nc(Nc2ccc(Oc3ccnc(C(F)(F)F)c3)cc2)cc(-c2ccc(Cl)c(Cl)c2)n1", "note": "[Example 112, 6-(3,4-dichlorophenyl)-N4*-(4-{[2-(trifluoromethyl)pyridin-4-yl]oxy}phenyl)pyrimidine-2,4-diamine]", "IC50": "500 to 2000"},
      {"smiles": "Nc1nc(Nc2ccc(Oc3ccnc(Cl)c3)cc2)cc(-c2cccc([N+](=O)[O-])c2)n1", "note": "[Example 115, N4*-{4-[(2-chloropyridin-4-yl)oxy]phenyl}-6-(3-nitrophenyl)pyrimidine-2,4-diamine]", "IC50": "500 to 2000"}
    ]},
    {"system": "HCT116 cells", "assay": "HCT116 cytotoxic activity assay (Alamar Blue, 72 h)", "type": "cell-based", "conditions": "Homo sapiens, HCT-116, 72 h compound exposure, greater than 2 μM", "experimental": "as §1", "units": {"IC50": "nM"}, "values": [
      {"smiles": "CNC(=O)c1cc(Oc2ccc(Nc3cc(-c4ccc(F)cc4)nc(N)n3)cc2)ccn1", "note": "[Example 71, 4-(4-{[2-amino-6-(4-fluorophenyl)pyrimidin-4-yl]amino}phenoxy)-N-methylpyridine-2-carboxamide]", "IC50": "> 2000"},
      {"smiles": "CNC(=O)c1cc(Oc2cccc(Nc3cc(-c4ccc(F)cc4)nc(N)n3)c2)ccn1", "note": "[Example 72, 4-(3-{[2-amino-6-(4-fluorophenyl)pyrimidin-4-yl]amino}phenoxy)-N-methylpyridine-2-carboxamide]", "IC50": "> 2000"},
      {"smiles": "NC(=O)c1cc(Oc2cccc(Nc3cc(-c4ccc(F)cc4)nc(N)n3)c2)ccn1", "note": "[Example 74, 4-(3-{[2-amino-6-(4-fluorophenyl)pyrimidin-4-yl]amino}phenoxy) pyridine-2-carboxamide]", "IC50": "> 2000"},
      {"smiles": "CNC(=O)c1cc(Oc2cccc(Nc3cc(-c4ccc(OC)cc4)nc(N)n3)c2)ccn1", "note": "[Example 77, 4-(3-{[2-amino-6-(4-methoxyphenyl)pyrimidin-4-yl]amino}phenoxy)-N-methylpyridine-2-carboxamide]", "IC50": "> 2000"},
      {"smiles": "CCCCOc1cc(Oc2ccc(Nc3cc(-c4ccccc4)nc(N)n3)cc2)ccn1", "note": "[Example 83, N4*-{4-[(2-butoxypyridin-4-yl)oxy]phenyl}-6-phenylpyrimidine-2,4-diamine]", "IC50": "> 2000"},
      {"smiles": "CC(=O)c1ccc(Oc2ccc(Nc3cc(-c4ccccc4)nc(N)n3)cn2)cc1", "note": "[Example 87, 1-[4-({5-[(2-amino-6-phenylpyrimidin-4-yl)amino]pyridin-2-yl}oxy)phenyl]ethanone]", "IC50": "> 2000"},
      {"smiles": "Nc1nc(Nc2ccc(Oc3cc(N4CCCCC4)ccn3)cc2)cc(-c2ccccc2)n1", "note": "[Example 106, 6-phenyl-N4*-{4-[(4-piperidin-1-ylpyridin-2-yl)oxy]phenyl}pyrimidine-2,4-diamine]", "IC50": "> 2000"},
      {"smiles": "Nc1nc(Nc2ccc(Oc3cc(N(CCO)CCO)ccn3)cc2)cc(-c2ccccc2)n1", "note": "[Example 108, 2,2′-[(2-{4-[(2-amino-6-phenylpyrimidin-4-yl)amino]phenoxy}pyridin-4-yl)imino]diethanol]", "IC50": "> 2000"},
      {"smiles": "CCC(CC)NCc1cc(Oc2ccc(Nc3cc(-c4ccccc4)nc(N)n3)cc2)ccn1", "note": "[Example 110, N4*-{4-[(2-{[(1-ethylpropyl)amino]methyl}pyridin-4-yl)oxy]phenyl}-6-phenylpyrimidine-2,4-diamine]", "IC50": "> 2000"},
      {"smiles": "Nc1nc(Nc2ccc(Oc3ccnc(CNC4CCCCC4)c3)cc2)cc(-c2ccccc2)n1", "note": "[Example 111, N4*-[4-({2-[(cyclohexylamino)methyl]pyridin-4-yl}oxy)phenyl]-6-phenylpyrimidine-2,4-diamine]", "IC50": "> 2000"}
    ]},
    {"system": "HCT116 cells", "assay": "HCT116 cytotoxic activity assay (Alamar Blue, 72 h)", "type": "cell-based", "conditions": "Homo sapiens, HCT-116, 72 h compound exposure, less than or equal to 500 nM", "experimental": "as §1", "units": {"IC50": "nM"}, "values": [
      {"smiles": "Nc1ccc(Oc2ccc(Nc3cc(-c4ccccc4)nc(N)n3)cc2)cc1", "note": "[Example 62, N^4-[4-(4-aminophenoxy)phenyl]-6-phenylpyrimidine-2,4-diamine]", "IC50": "≤ 500"},
      {"smiles": "Nc1nc(Nc2ccc(Oc3cc(Br)ccn3)cc2)cc(-c2ccccc2)n1", "note": "[Example 63, N4*-{4-[(4-bromopyridin-2-yl)oxy]phenyl}-6-phenylpyrimidine-2,4-diamine]", "IC50": "≤ 500"},
      {"smiles": "Nc1nc(Nc2ccc(Oc3ccnc(F)c3)cc2)cc(-c2ccccc2)n1", "note": "[Example 64, N4*-{4-[(2-fluoropyridin-4-yl)oxy]phenyl}-6-phenylpyrimidine-2,4-diamine trifluoroacetate]", "IC50": "≤ 500"},
      {"smiles": "Nc1nc(Nc2ccc(Oc3ccnc(Cl)c3)cc2F)cc(-c2ccccc2)n1", "note": "[Example 66, N4*-{4-[(2-chloropyridin-4-yl)oxy]-2-fluorophenyl}-6-phenylpyrimidine-2,4-diamine]", "IC50": "≤ 500"},
      {"smiles": "Nc1nc(Nc2ccc(Oc3ccnc(C(F)(F)F)c3)cc2F)cc(-c2ccccc2)n1", "note": "[Example 67, N4*-(2-fluoro-4-{[2-(trifluoromethyl)pyridin-4-yl]oxy}phenyl)-6-phenylpyrimidine-2,4-diamine]", "IC50": "≤ 500"},
      {"smiles": "NC(=O)c1cc(Oc2ccc(Nc3cc(-c4ccccc4)nc(N)n3)cc2)ccn1", "note": "[Example 69, 4-{4-[(2-amino-6-phenylpyrimidin-4-yl)amino]phenoxy} pyridine-2-carboxamide]", "IC50": "≤ 500"},
      {"smiles": "CNC(=O)c1cc(Oc2cccc(Nc3cc(-c4cccc(OC)c4)nc(N)n3)c2)ccn1", "note": "[Example 76, 4-(3-{[2-amino-6-(3-methoxyphenyl)pyrimidin-4-yl]amino}phenoxy)-N-methylpyridine-2-carboxamide]", "IC50": "≤ 500"},
      {"smiles": "Nc1nc(Nc2ccc(Oc3ccnc(C(=O)NCC(O)CO)c3)cc2)cc(-c2ccccc2)n1", "note": "(stereo not shown) [Example 80, 4-{4-[(2-amino-6-phenylpyrimidin-4-yl)amino]phenoxy}-N-(2,3-dihydroxypropyl)pyridine-2-carboxamide]", "IC50": "≤ 500"},
      {"smiles": "COCCOc1cc(Oc2ccc(Nc3cc(-c4ccccc4)nc(N)n3)cc2)ccn1", "note": "[Example 84, N^4-(4-{[2-(2-methoxyethoxy)pyridin-4-yl]oxy}phenyl)-6-phenylpyrimidine-2,4-diamine]", "IC50": "≤ 500"},
      {"smiles": "Nc1ccc(Cc2ccc(Nc3cc(-c4ccccc4)nc(N)n3)cc2)cc1", "note": "[Example 88, N^4*-[4-(4-aminobenzyl)phenyl]-6-phenylpyrimidine-2,4-diamine]", "IC50": "≤ 500"},
      {"smiles": "CN(C)C(=O)NCc1cc(Oc2ccc(Nc3cc(-c4ccccc4)nc(N)n3)cc2)ccn1", "note": "[Example 99, N′-[(4-{4-[(2-amino-6-phenylpyrimidin-4-yl)amino]phenoxy}pyridin-2-yl)methyl]-N,N-dimethylurea]", "IC50": "≤ 500"},
      {"smiles": "Nc1nc(Nc2cccc(Oc3ccnc(Cl)c3)c2)cc(-c2ccccc2)n1", "note": "[Example 113, N4*-{3-[(2-chloropyridin-4-yl)oxy]phenyl}-6-phenylpyrimidine-2,4-diamine]", "IC50": "≤ 500"},
      {"smiles": "Nc1nc(Nc2ccc(Oc3ccnc(Cl)c3)cc2)cc(-c2ccc(F)cc2)n1", "note": "[Example 114, N4*-{4-[(2-chloropyridin-4-yl)oxy]phenyl}-6-(4-fluorophenyl)pyrimidine-2,4-diamine]", "IC50": "≤ 500"}
    ]}
  ]
}
